Measured values: US12144788B2, “Visual cycle modulators” (CASE WESTERN RESERVE UNIVERSITY, priority 2017, dated 2024)

Tests used:
C57BL/6J mice = experiment: in vivo dark-adapted ERG recordings after bleach; parameters: species or system mouse; settings: gavage 1 day before bleach, doses indicated effective by retinoid analysis
Protocol: FIG. 5 illustrates ERG responses of mice treated with visual cycle modulators. Oral gavage was used to administer vehicle or MB compounds to mice 24 h prior to 10 min light exposure followed by 6 h of dark adaptation. Dark-adapted ERGs were obtained to strobe flash stimuli.
C57BL/6J mice aged 1.5-4 months were anesthetized with ketamine (80 mg/kg) and xylazine (16 mg/kg) after overnight dark adaptation. Mydriatic eye drops were used to dilate the pupil (1% tropicamide; 2.5% phenylephrine). ERGs were obtained using an active electrode that contacted the corneal surface; needle electrodes placed in the cheek and tail provided reference and ground leads, respectively. Strobe stimuli were presented to the dark-adapted eye in an LKC (Gaithersburg, MD) ganzfeld. Responses were amplified, averaged and stored using an LKC UTAS E-3000 signal averaging system.
Baseline dark-adapted ERGs were recorded from each mouse. After a minimum 1 day interval, MB compounds or vehicle were administered by gavage at 9 a.m. The next morning, mydriatic eye drops were used to dilate the pupils and mice were then exposed to a 10-minute 10,000 lux bleach. Mice were dark-adapted for 6 hours, after which ERGs were recorded.
We next examined the impact of these compounds on retinal function, measured using the electroretinogram (ERG). FIG. 5 presents a family of dark-adapted ERGs measured 6 hours after mice underwent a 95% bleach presented 1 day following gavage administration of vehicle or MB compound molecules at doses indicated to be effective by retinoid analysis. […] In comparison, mice administered with MB compound molecules had had reduced amplitude ERGs indicative of incomplete bleaching recovery. […] In response to higher luminance stimuli, reproducible responses were observed. That these reflect dark-adapted cone-mediated responses is supported by their similarity to responses obtained from transducin KO mice which lack rod-mediated activity, while retaining normal cone-mediated responses, and have a very similar ERG phenotype.

[1] = quantification of MB-005 in mouse eyes by LC-ESI-MS/MS; type: in vivo; settings: 1 mg dose oral gavage
Protocol: MB-005 (1 mg/mouse) was administrated by oral gavage to C57BL/6J mice, which were then kept in the dark for 4-24 h. Then, mice were euthanized, and their eyes were homogenized in 1 ml of 10 mM sodium phosphate buffer, pH 7.4, containing 50% methanol (v/v). The resulting mixture was extracted with 4 ml EtOAc. […] This solution (100 μl) was analyzed by liquid chromatography—electrospray ionization—MS/MS (LC-ESI-MS/MS) (4.6 mm×150 mm; Agilent ZORBAX Eclipse XDB-C18) with a gradient of acetonitrile in water (0%-100% in 30 min) as the eluent at a flow rate of 0.5 ml/min.
To confirm the ocular distribution of this compound series, we directly measured the quantity of MB-005 in the eye by mass spectrometry after a 1 mg dose. […] This minimal change in ocular MB-005 concentration contrasts with the ˜3-fold greater inhibition of visual cycle function observed at 4 h versus 24 h for this compound.

dark-adapted ERG 6 hours after 95% bleach (C57BL/6J mice): less incomplete recovery
ocular level of MB-005 ([1]; 6 h after treatment): ~140 ng/eye
ocular level of MB-005 ([1]; 24 h post-treatment time point versus 6 h): declined only slightly
SMILES: CC(C)c1cc(OCC2CCCCC2)cc(C(O)CCN)c1 (stereo not drawn) [MB-005, 3-Amino-1-(3-(cyclohexylmethoxy)-5-isopropylphenyl)propan-1-ol]
